Data as given in paper PMC6537165 (Slas Discovery, 2019).

Tested on: Wolbachia pipientis (wAlbB) in C6/36 (wAlbB) cells
Assay: acumen high-throughput anti-Wolbachia assay
Format: cell-based
Settings: C6/36, 168 h, read-out: anti-Wolbachia IC50 in the acumen assay

## C[C@H]1c2cccc(O)c2C(=O)C2=C(O)[C@]3(O)C(=O)C(C(N)=O)=C(O)[C@@H](N(C)C)[C@@H]3[C@@H](O)[C@@H]21 [Doxycycline, doxycycline]
  IC50: 17.8 nM
